Experimental data from paper PMC10051477, “5,8-Dimethyl-9H-carbazole Derivatives Blocking hTopo I Activity and Actin Dynamics” (Pharmaceuticals, 2023).

Tests used:
[1] = test system: MCF-10A cells; test: MTT assay, MCF-10A normal cell viability; assay type: cell-based, human; settings: 72 h, non-malignant breast epithelial cells, mean ± standard deviation
Method: The inhibition of cancer cell growth exerted by the five considered compounds (1–5) has been evaluated in vitro against two models of breast cancer, namely the estrogen receptor positive (ER+) MCF-7 and the triple negative MDA-MB-231 human breast cancer cells (lacking ER, PR, and HER-2/Neu amplification), together with the normal counterpart, namely the non-malignant breast epithelial cells MCF-10A. […] Moreover, no effects were recorded against the MCF-7 cells, at least until the concentration of 100 μM. […] Thus, the two lead compounds were chosen for subsequent studies aiming at individuating the molecular mechanisms underlying the observed anticancer activity.
MTT assays (Sigma Aldrich (St.Louis, MO, USA)) were employed to evaluate the in vitro anticancer activities of all the studied compounds, as previously described. The compounds were tested at different concentrations (0.1-1-10-25-50-100 μM) for 72 h. The IC50 values were calculated from the percent (%) of control using GraphPad Prism 9 (GraphPad Software, La Jolla, CA, USA).

[2] = target: T1, hTopo II (Homo sapiens, UniProt P11388); test: hTopo II decatenation assay; assay type: biochemical; settings: compound at 10 μM, kDNA, agarose gel
T1 construct: purchased TopoGEN
T1 sequence (P11388 whole entry): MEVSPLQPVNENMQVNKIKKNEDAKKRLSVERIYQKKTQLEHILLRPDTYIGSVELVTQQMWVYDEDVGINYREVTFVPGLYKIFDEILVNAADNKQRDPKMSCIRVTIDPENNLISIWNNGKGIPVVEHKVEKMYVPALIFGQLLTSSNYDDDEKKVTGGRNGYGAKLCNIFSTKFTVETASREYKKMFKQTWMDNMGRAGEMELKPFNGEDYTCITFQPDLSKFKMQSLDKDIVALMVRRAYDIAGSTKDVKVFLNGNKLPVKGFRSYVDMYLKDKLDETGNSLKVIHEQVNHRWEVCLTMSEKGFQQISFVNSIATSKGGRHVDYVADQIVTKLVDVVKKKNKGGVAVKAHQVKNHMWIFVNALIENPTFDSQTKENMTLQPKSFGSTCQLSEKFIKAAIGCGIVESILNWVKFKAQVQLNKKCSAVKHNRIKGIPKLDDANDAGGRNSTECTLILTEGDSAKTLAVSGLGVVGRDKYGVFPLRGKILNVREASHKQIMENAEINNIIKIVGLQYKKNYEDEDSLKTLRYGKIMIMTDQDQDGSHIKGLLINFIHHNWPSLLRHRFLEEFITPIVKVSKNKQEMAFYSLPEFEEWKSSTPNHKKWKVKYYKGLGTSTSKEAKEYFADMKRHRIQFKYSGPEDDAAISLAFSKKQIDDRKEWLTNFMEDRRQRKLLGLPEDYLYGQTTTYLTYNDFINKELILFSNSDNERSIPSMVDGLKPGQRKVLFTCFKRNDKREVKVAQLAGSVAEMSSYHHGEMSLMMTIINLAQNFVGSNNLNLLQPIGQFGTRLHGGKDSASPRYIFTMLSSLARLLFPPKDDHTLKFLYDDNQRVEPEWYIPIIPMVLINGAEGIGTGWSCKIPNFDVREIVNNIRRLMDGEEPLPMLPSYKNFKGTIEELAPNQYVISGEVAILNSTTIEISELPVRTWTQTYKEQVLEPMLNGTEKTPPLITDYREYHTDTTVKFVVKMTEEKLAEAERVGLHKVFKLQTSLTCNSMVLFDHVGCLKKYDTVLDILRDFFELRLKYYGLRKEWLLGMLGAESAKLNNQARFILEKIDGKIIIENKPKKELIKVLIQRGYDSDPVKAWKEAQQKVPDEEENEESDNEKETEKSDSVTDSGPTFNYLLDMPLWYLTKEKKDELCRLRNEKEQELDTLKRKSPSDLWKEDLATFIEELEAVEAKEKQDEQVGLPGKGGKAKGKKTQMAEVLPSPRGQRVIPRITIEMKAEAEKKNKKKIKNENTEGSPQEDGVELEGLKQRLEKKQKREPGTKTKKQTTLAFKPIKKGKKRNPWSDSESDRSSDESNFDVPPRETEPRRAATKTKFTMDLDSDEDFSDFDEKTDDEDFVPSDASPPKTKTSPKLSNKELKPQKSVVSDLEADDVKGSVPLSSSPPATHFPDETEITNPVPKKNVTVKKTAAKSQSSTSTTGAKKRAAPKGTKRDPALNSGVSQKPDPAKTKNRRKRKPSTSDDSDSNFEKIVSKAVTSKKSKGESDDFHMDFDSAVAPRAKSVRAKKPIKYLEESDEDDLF
Method: Next, we screened all the compounds for their activity against the hTopo II but, in this case, none of the tested compounds have been able to block the decatenation activity at the concentration of […] (Figure 3b, lanes 4 and 5). […] Indeed, two bands related to the DNA decatenation products are present at the bottom of the agarose gel, which denote the enzyme full activity, both in the control (only vehicle, Figure 3b, lane 3) and the tested compound reactions (Figure 3b, lanes 4–7).
Similarly, hTopo II decatenation assays were carried out, as indicated in the manufacturer’s procedures (TopoGEN, Port Orange, FL, USA) with some revisions.
hTopo II decatenation assays were performed in a final volume of 20 μL: 0.3 μg of kinetoplast DNA (kDNA) was added to a solution containing 1× assay buffer (50 mM Tris-HCl, pH of 8, 150 mM NaCl, 10 mM MgCl2, 0.5 mM Dithiothreitol (DTT), 30 μg/mL bovine serum albumin (BSA), 1 mM ATP) and the tested compounds. The mix was incubated for 15 min at 37 °C. Then, the reaction was started by adding 3 U of hTopo II and incubating at 37 °C for 1 h. Then, 5× stop buffer was added and the samples were treated as described in the previous paragraph. The aqueous phase was loaded on a 1% agarose gel containing 1× TAE buffer with EB (0.5 μg/mL) and visualized using an UV transilluminator.

[3] = target: T2, labeled rabbit muscle actin (Oryctolagus cuniculus, UniProt P68135); test: In vitro actin polymerization assay; assay type: biochemical; settings: 5 µM, 1 h, room temperature; vehicle plateau about 25,000 RFU
T2 construct: fluorescent label (chemical); purchased Abcam; host or cells: rabbit muscle
Source text: With the aim to confirm the immunofluorescence results and substantiate whether compounds 3 and 4 could inhibit the actin polymerization mechanism and/or boost the F-actin depolymerization, we employed a fluorescent-labeled purified rabbit actin. LA and cytochalasin B (CB) were used as positive controls for both the polymerization inhibition and F-actin subunits dissociation, or only the polymerization inhibition, respectively. In the negative control reaction (only vehicle), actin monomers undergo a normal polymerization, as visible in Figure 5, panel A. The reaction curve rises in approximately 5 min to a value of about 25,000 RFU (plateau) which remains almost unvaried until the end of the experiment. Contrariwise, the two reference molecules, i.e., LA and CB, used at the concentration of 5 µM, braked the actin polymerization, mostly LA rather than CB, under the adopted experimental conditions, and the LA curve dropped until a value of about 8000 RFU at the reaction end.
An Actin Polymerization/Depolymerization Assay Kit, purchased from Abcam, was employed to assess the ability of compounds 3 and 4 to interfere with the actin polymerization and depolymerization processes. To perform the essays, the manufacturer’s instructions were followed with some modifications. In particular, polymerization assay was carried out incubating in a white 96-well plate the reconstituted actin with supplemented Buffer G, compounds 3 and 4 and then Buffer P was added in order to induce actin polymerization. For the Actin Depolymerization Assay, the actin polymerization was first induced, incubating supplemented Buffers P and G at room temperature for one hour. Then, compounds 3 and 4 were added at a concentration of 5 μM. Latrunculin A (LA) and Cytochalasin B (CB) were utilized as positive control at a concentration of 5 μM. For both the assays, the assemblage of the actin filaments was defined by measuring the fluorescence (Ex/Em: 365/410 nm) in kinetic mode for 1 h at room temperature in a microplate reader.

[4] = test system: MDA-MB-231 cells; test: TUNEL assay (apoptosis); assay type: cell-based, human; settings: MDA-MB-231, 24 h, concentration equal to IC50 values
Method: Having individuated two intracellular targets, we wondered whether the lead compounds could induce apoptosis in MDA-MB-231 cells. Thus, we performed a TUNEL assay. […] Indeed, the exposure to both compounds produced a green nuclear fluorescence, already at 24 h, in MDA-MB-231 cells (Figure 6, 3 and 4, panels B, CF^TM488A) as a consequence of the damaged DNA. […] The overlay channel (Figure 6, panels C) is also shown.
TUNEL assay was employed to assess the cells apoptosis, following the manufacturer’s protocols (CF™488A TUNEL Assay Apoptosis Detection Kit, Biotium, Hayward, CA, USA) with few revisions. Briefly, the cells were plated and then additional processed as previously described. DAPI (0.2 μg/mL, Sigma Aldrich, Milan, Italy) was used for nuclei staining. A fluorescence microscope (Leica DM 6000) was used for fluorescence detection (20× magnification). LAS-X software allowed acquiring and processing all the fluorescence images, which are representative of three separate experiments.

| Inhibition of hTopo II decatenation activity [2] | Actin polymerization, final fluorescence value of reaction curve [3] | SMILES | IC50 ([1]; Homo sapiens, MCF-10A) | Apoptosis induction (TUNEL, green nuclear fluorescence) [4] | IC50 [1] |
| --- | --- | --- | --- | --- | --- |
| no inhibitory activity | around 16,000 RFU | Cc1ccc(C)c2c1c1cc(O)ccc1n2C(=O)OC(C)(C)C [Compound 4] | > 100 µM | able to trigger apoptosis |  |
| no inhibitory activity | about 13,000 RFU | Cc1ccc(C)c2c1c1cc(B(O)O)ccc1n2C(=O)OC(C)(C)C [Compound 3] | ~52 µM | able to trigger apoptosis | 51.9 ± 0.88 µM |
